Source: patent publication US9169209B2, “Compounds and compositions for the inhibition of NAMPT” (FORMA TM, LLC, priority 2011, dated 2015)

Columns and labels:
[1] = target: NAMPT (Homo sapiens (Human), UniProt P43490); test: Biochemical Inhibition Assay (NAMPT enzymatic reaction, NMN quantified by mass spectrometry); conditions: recombinant His-tagged NAMPT, 33 nM; 1 μM NAM; read-out: Biochem IC50
Method: Recombinant His-tagged NAMPT was produced in E. coli cells, purified over a Ni column, and further purified over a size-exclusion column by XTAL Biostructures.
The NAMPT enzymatic reactions were carried out in Buffer A (50 mM Hepes pH 7.5, 50 mM NaCl, 5 mM MgCl2, and 1 mM THP) in 96-well V-bottom plates. The compound titrations were performed in a separate dilution plate by serially diluting the compounds in DMSO to make a 100× stock. […] The compound and enzyme mix was incubated for 15 minutes at room temperature, then 10 μL of 10× substrate and co-factors in Buffer A were added to the test well to make a final concentration of 1 μM NAM, 100 μM 5-Phospho-D-ribose 1-diphosphate (PRPP), and 2.5 mM Adenosine 5′-triphosphate (ATP). The reaction was allowed to proceed for 30 minutes at room temperature, then was quenched with the addition of 11 μL of a solution of formic acid and L-Cystathionine to make a final concentration of 1% formic acid and 10 μM L-Cystathionine. Background and signal strength was determined by addition (or non-addition) of a serial dilution of NMN to a pre-quenched enzyme and cofactor mix.
A mass spectrometry-based assay was used to measure the NAMPT reaction product (NMN) and the internal control (L-Cystathionine). NMN and L-Cystathionine were detected using the services of Biocius Lifesciences with the RapidFire system. In short, the NMN and L-Cystathionine are bound to a graphitic carbon cartridge in 0.1% formic acid, eluted in 30% acetonitrile buffer, and injected into a Sciex 4000 mass spectrometer. The components of the sample were ionized with electrospray ionization and the positive ions were detected. […] The fragments are quantified and the analyzed by the following method.
First the NMN signal is normalized to the L-Cystathionine signal by dividing the NMN signal by the L-Cystathionine signal for each well. The signal from the background wells are averaged and subtracted from the test plates.
Wherein x denotes the average signal of the compound treated wells and y denotes the average signal of the DMSO treated wells.
IC50s are Determined Using Excel and this Formula.
Wherein X denotes the compound concentration 1, Y denotes the compound concentration 2, XX denotes the % inhibition at compound concentration 1 (X), and YY denotes the % inhibition at compound concentration 2 (Y).

[2] = tested on: A2780 cells; test: In-Vitro Cell Proliferation Assay (SRB, 72 hours); format: cell-based; conditions: Homo sapiens, A2780, 72 h, A2780 cells, 72 hours, sulforhodamine B; read-out: A2780 IC50
Method: After overnight incubation at 37° C. and 5% CO2, the compound titrations were performed in a separate dilution plate by serially diluting the compounds in DMSO to make a 1000× stock. The compounds were then further diluted to 10× final concentration in culture media, whereupon 20 μL of each dilution was added to the plated cells with controls (e.g. DMSO and blank) to make a final volume of 200 μL. The final DMSO concentration in each well was 0.1%. The plates were then incubated for 72 hours at 37° C. in a 5% CO2 incubator. The number of viable cells was then assessed using sulforhodamine B (SRB) assay. Cells were fixed at 4° C. for 1 hour with the addition of 50 μL 30% trichloroacetic acid (TCA) to make a final concentration of 6% TCA. The plates were washed four times with H2O and allowed to dry for at least 1 hour, whereupon 100 μL of a 4% SRB in 1% acetic acid solution was added to each well and incubated at room temperature for at least 30 minutes. The plates were then washed three times with 1% acetic acid, dried, and treated with 100 μL of 10 mM Tris-Base solution. The plates were then read in a microplate reader at an absorbance of 570 nm. Background was generated on a separate plate with media only.
First, the signals from the background plate are averaged and then the background was subtracted from the test plates.
wherein x denotes the average signal of the compound-treated cells and y denotes the average signal of the DMSO-treated cells.
wherein X denotes the compound concentration 1, Y denotes the compound concentration 2, XX denotes the % inhibition at compound concentration 1 (X), and YY denotes the % inhibition at compound concentration 2 (Y).

Sequence of NAMPT (P43490 whole entry): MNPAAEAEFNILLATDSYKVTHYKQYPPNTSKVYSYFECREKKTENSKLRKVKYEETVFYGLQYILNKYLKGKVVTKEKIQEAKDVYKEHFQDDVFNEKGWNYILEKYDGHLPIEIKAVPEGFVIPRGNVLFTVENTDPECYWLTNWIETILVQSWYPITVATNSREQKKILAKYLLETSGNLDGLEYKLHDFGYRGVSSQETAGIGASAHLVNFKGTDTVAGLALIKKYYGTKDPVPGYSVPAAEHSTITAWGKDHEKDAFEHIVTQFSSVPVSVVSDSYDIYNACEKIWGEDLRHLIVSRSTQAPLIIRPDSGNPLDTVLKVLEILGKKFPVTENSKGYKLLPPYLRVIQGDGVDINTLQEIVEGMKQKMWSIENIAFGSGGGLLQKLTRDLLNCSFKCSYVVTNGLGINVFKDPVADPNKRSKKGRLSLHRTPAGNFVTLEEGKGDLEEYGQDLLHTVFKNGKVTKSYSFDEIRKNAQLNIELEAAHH

## COCc1cccc(S(=O)(=O)c2ccc(NC(=O)/C=C/c3cccnc3)cc2)c1 [(2E)-N-(4-{[3-(methoxymethyl)benzene]sulfonyl}phenyl)-3-(pyridin-3-yl)prop-2-enamide]
[1]
  IC50: 7.7 nM
[2]
  IC50: 78 nM

## O=C(/C=C/c1cccnc1)Nc1ccc(S(=O)(=O)c2cccc(N3CCOCC3)c2)cc1 [(2E)-N-(4-{[3-(morpholin-4-yl)benzene]sulfonyl}phenyl)-3-(pyridin-3-yl)prop-2-enamide]
[1]
  IC50: 9.2 nM
[2]
  IC50: 30.3 nM

## CC(C)Oc1cccc(S(=O)(=O)c2ccc(NC(=O)/C=C/c3cccnc3)cc2)c1 [(2E)-N-(4-{[3-(propan-2-yloxy)benzene]sulfonyl}phenyl)-3-(pyridin-3-yl)prop-2-enamide]
[1]
  IC50: 1.1 nM
[2]
  IC50: 48.9 nM

## O=C(/C=C/c1cccnc1)Nc1ccc(S(=O)(=O)c2ccc(C(F)(F)F)c(Cl)c2)cc1 [(2E)-N-(4-{[3-chloro-4-(trifluoromethyl)benzene]sulfonyl}phenyl)-3-(pyridin-3-yl)prop-2-enamide]
[1]
  IC50: 43.4 nM
[2]
  IC50: 100 to 1000 nM

## O=C(/C=C/c1cccnc1)Nc1ccc(S(=O)(=O)c2cc(Cl)cc(C(F)(F)F)c2)cc1 [(2E)-N-(4-{[3-chloro-5-(trifluoromethyl)benzene]sulfonyl}phenyl)-3-(pyridin-3-yl)prop-2-enamide]
[1]
  IC50: 8.1 nM
[2]
  IC50: 58.3 nM

## CC(C)COc1cc(F)cc(S(=O)(=O)c2ccc(NC(=O)/C=C/c3cccnc3)cc2)c1 [(2E)-N-(4-{[3-fluoro-5-(2-methylpropoxy)benzene]sulfonyl}phenyl)-3-(pyridin-3-yl)prop-2-enamide]
[1]
  IC50: 35.4 nM
[2]
  IC50: 61.3 nM

## O=C(/C=C/c1cccnc1)Nc1ccc(S(=O)(=O)c2ccc(-n3cccn3)cc2)cc1 [(2E)-N-(4-{[4-(1H-pyrazol-1-yl)benzene]sulfonyl}phenyl)-3-(pyridin-3-yl)prop-2-enamide]
[1]
  IC50: 17.4 nM
[2]
  IC50: 71.7 nM

## CCOCc1ccc(S(=O)(=O)c2ccc(NC(=O)/C=C/c3cccnc3)cc2)cc1 [(2E)-N-(4-{[4-(ethoxymethyl)benzene]sulfonyl}phenyl)-3-(pyridin-3-yl)prop-2-enamide]
[1]
  IC50: 7.8 nM
[2]
  IC50: 100 to 1000 nM

## O=C(/C=C/c1cccnc1)Nc1ccc(S(=O)(=O)c2ccc(N3CCOCC3)cc2)cc1 [(2E)-N-(4-{[4-(morpholin-4-yl)benzene]sulfonyl}phenyl)-3-(pyridin-3-yl)prop-2-enamide]
[1]
  IC50: 24.8 nM
[2]
  IC50: 55.3 nM

## CC(C)Oc1ccc(S(=O)(=O)c2ccc(NC(=O)/C=C/c3cccnc3)cc2)cc1 [(2E)-N-(4-{[4-(propan-2-yloxy)benzene]sulfonyl}phenyl)-3-(pyridin-3-yl)prop-2-enamide]
[1]
  IC50: 5.4 nM
[2]
  IC50: 91.5 nM

## O=C(/C=C/c1cccnc1)Nc1ccc(S(=O)(=O)c2ccc(Cl)c(C(F)(F)F)c2)cc1 [(2E)-N-(4-{[4-chloro-3-(trifluoromethyl)benzene]sulfonyl}phenyl)-3-(pyridin-3-yl)prop-2-enamide]
[1]
  IC50: 18.4 nM
[2]
  IC50: 122 nM

## O=C(/C=C/c1cccnc1)Nc1ccc(S(=O)(=O)c2cccc3ccsc23)cc1 [(2E)-N-[4-(1-benzothiophene-7-sulfonyl)phenyl]-3-(pyridin-3-yl)prop-2-enamide]
[1]
  IC50: 16.1 nM
[2]
  IC50: 106 nM

## Cn1ncc2cc(S(=O)(=O)c3ccc(NC(=O)/C=C/c4cccnc4)cc3)ccc21 [(2E)-N-[4-(1-methyl-1H-indazole-5-sulfonyl)phenyl]-3-(pyridin-3-yl)prop-2-enamide]
[1]
  IC50: 1.9 nM
[2]
  IC50: 97.6 nM

## Cn1ncc2cccc(S(=O)(=O)c3ccc(NC(=O)/C=C/c4cccnc4)cc3)c21 [(2E)-N-[4-(1-methyl-1H-indazole-7-sulfonyl)phenyl]-3-(pyridin-3-yl)prop-2-enamide]
[1]
  IC50: 8.9 nM
[2]
  IC50: 100 to 1000 nM

## Cn1c(S(=O)(=O)c2ccc(NC(=O)/C=C/c3cccnc3)cc2)cc2ccccc21 [(2E)-N-[4-(1-methyl-1H-indole-2-sulfonyl)phenyl]-3-(pyridin-3-yl)prop-2-enamide]
[1]
  IC50: 21.8 nM
[2]
  IC50: 100 to 1000 nM

## Cn1cc(S(=O)(=O)c2ccc(NC(=O)/C=C/c3cccnc3)cc2)cn1 [(2E)-N-[4-(1-methyl-1H-pyrazole-4-sulfonyl)phenyl]-3-(pyridin-3-yl)prop-2-enamide]
[1]
  IC50: 7.7 nM
[2]
  IC50: 100 to 1000 nM

## CCCn1cc(S(=O)(=O)c2ccc(NC(=O)/C=C/c3cccnc3)cc2)cn1 [(2E)-N-[4-(1-propyl-1H-pyrazole-4-sulfonyl)phenyl]-3-(pyridin-3-yl)prop-2-enamide]
[1]
  IC50: 2.6 nM
[2]
  IC50: 20.8 nM

## O=C(/C=C/c1cccnc1)Nc1ccc(S(=O)(=O)c2cccc3[nH]ccc23)cc1 [(2E)-N-[4-(1H-indole-4-sulfonyl)phenyl]-3-(pyridin-3-yl)prop-2-enamide]
[1]
  IC50: 2.3 nM
[2]
  IC50: 40.1 nM

## O=C(/C=C/c1cccnc1)Nc1ccc(S(=O)(=O)c2cccc3cc[nH]c23)cc1 [(2E)-N-[4-(1H-indole-7-sulfonyl)phenyl]-3-(pyridin-3-yl)prop-2-enamide]
[1]
  IC50: 8.4 nM
[2]
  IC50: 13.3 nM

## O=C(/C=C/c1cccnc1)Nc1ccc(S(=O)(=O)c2cccc3c2OCC3)cc1 [(2E)-N-[4-(2,3-dihydro-1-benzofuran-7-sulfonyl)phenyl]-3-(pyridin-3-yl)prop-2-enamide]
[1]
  IC50: 4.9 nM
[2]
  IC50: 36.1 nM

## Cc1ncccc1S(=O)(=O)c1ccc(NC(=O)/C=C/c2cccnc2)cc1 [(2E)-N-[4-(2-methylpyridine-3-sulfonyl)phenyl]-3-(pyridin-3-yl)prop-2-enamide]
[1]
  IC50: 9 nM
[2]
  IC50: 100 to 1000 nM

## O=C(/C=C/c1cccnc1)Nc1ccc(S(=O)(=O)c2cccc3c2OCO3)cc1 [(2E)-N-[4-(2H-1,3-benzodioxole-4-sulfonyl)phenyl]-3-(pyridin-3-yl)prop-2-enamide]
[1]
  IC50: 16.1 nM
[2]
  IC50: 75.1 nM

## O=C(/C=C/c1cccnc1)Nc1ccc(S(=O)(=O)c2ccc3c(c2)OCO3)cc1 [(2E)-N-[4-(2H-1,3-benzodioxole-5-sulfonyl)phenyl]-3-(pyridin-3-yl)prop-2-enamide]
[1]
  IC50: 9.9 nM
[2]
  IC50: 100 to 1000 nM

## Cc1ccncc1S(=O)(=O)c1ccc(NC(=O)/C=C/c2cccnc2)cc1 [(2E)-N-[4-(4-methylpyridine-3-sulfonyl)phenyl]-3-(pyridin-3-yl)prop-2-enamide]
[1]
  IC50: 20.4 nM
[2]
  IC50: 100 to 1000 nM

## COc1cncc(S(=O)(=O)c2ccc(NC(=O)/C=C/c3cccnc3)cc2)c1 [(2E)-N-[4-(5-methoxypyridine-3-sulfonyl)phenyl]-3-(pyridin-3-yl)prop-2-enamide]
[1]
  IC50: 15.6 nM
[2]
  IC50: 86.3 nM

## Cc1cncc(S(=O)(=O)c2ccc(NC(=O)/C=C/c3cccnc3)cc2)c1 [(2E)-N-[4-(5-methylpyridine-3-sulfonyl)phenyl]-3-(pyridin-3-yl)prop-2-enamide]
[1]
  IC50: 18.1 nM
[2]
  IC50: 74.4 nM

## Cc1ccc(S(=O)(=O)c2ccc(NC(=O)/C=C/c3cccnc3)cc2)s1 [(2E)-N-[4-(5-methylthiophene-2-sulfonyl)phenyl]-3-(pyridin-3-yl)prop-2-enamide]
[1]
  IC50: 16.6 nM
[2]
  IC50: 100 to 1000 nM

## O=C(/C=C/c1cccnc1)Nc1ccc(S(=O)(=O)c2ccccc2)cc1 [(2E)-N-[4-(benzenesulfonyl)phenyl]-3-(pyridin-3-yl)prop-2-enamide]
[1]
  IC50: 4 nM
[2]
  IC50: 81 nM

## O=C(/C=C/c1cccnc1)Nc1ccc(S(=O)(=O)c2cncc3ccccc23)cc1 [(2E)-N-[4-(isoquinoline-4-sulfonyl)phenyl]-3-(pyridin-3-yl)prop-2-enamide]
[1]
  IC50: 2.45 nM
[2]
  IC50: 21.7 nM
